Experiments:
THP-1 = experiment: Cell growth inhibition assay (CellTiter-Glo), THP-1; type: cell-based, human; details: THP-1 cells, 4 days; for GI50: Homo sapiens, 96 h, half-maximal growth inhibition; for THP-1 TGI: total growth inhibition
Procedure, shortened: (§1)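 A separate day 0 plate allows cytotoxic and cytostatic effects to be distinguished: viable-cell ATP after 4-day compound treatment (top 10 μM, 3-fold steps) is expressed relative to it. DMSO-only wells count as 100% and medium-only wells as −100%.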

K-562 = experiment: Cell growth inhibition assay (CellTiter-Glo), K-562; type: cell-based, human; details: K-562 cells, 4 days; for GI50: Homo sapiens, K562, 96 h, half-maximal growth inhibition; for K-562 TGI: total growth inhibition
Procedure, shortened: as §1

BRD4 = BRD4 (Homo sapiens (Human), UniProt O60885); experiment: TR-FRET in-vitro binding assay for BRD4; details: 45 nM His-Brd4(44-477), acetyl-histone H4 (AcK 5, 8, 12, 16) peptide
Procedure, shortened: (§2)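 Incubation at 30° C lasted 35 min, followed by TR-FRET measurement; each compound was tested as 8 single-point concentrations.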

CREBBP = CREBBP (Homo sapiens (Human), UniProt Q92793); experiment: AlphaScreen in-vitro binding assay for CREBBP; details: 324 nM His-CREBBP (1081-1197), acetyl-histone H4 (AcK 5, 8, 12) peptide
Procedure, shortened: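 IC50 values were derived by non-linear regression of percent inhibition across 8 compound concentrations. Protein was His-tagged CREBBP bromodomain (1081-1197), peptide acetyl-histone H4 (AcK 5, 8, 12), in HEPES pH 7.5 buffer. Read-out was AlphaScreen with Ni-chelate acceptor and streptavidin donor beads, 35 min at 30° C then 60 min at RT.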

MV-4-11 = experiment: Cell growth inhibition assay (CellTiter-Glo), MV-4-11; type: cell-based, human; details: MV-4-11 cells, 4 days; for GI50: Homo sapiens, MV4-11, 96 h, half-maximal growth inhibition; for MV-4-11 TGI: total growth inhibition
Procedure, shortened: as §1

BRD3 = BRD3 (Homo sapiens (Human), UniProt Q15059); experiment: TR-FRET in-vitro binding assay for BRD3; details: 45 nM His-Brd3(20-477), acetyl-histone H4 (AcK 5, 8, 12, 16) peptide
Procedure, shortened: as §2

Chain of CREBBP (Q92793 1081-1197): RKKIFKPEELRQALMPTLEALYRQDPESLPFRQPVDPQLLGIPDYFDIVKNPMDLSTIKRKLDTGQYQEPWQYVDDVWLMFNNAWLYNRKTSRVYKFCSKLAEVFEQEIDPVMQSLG
Chain of BRD3 (Q15059 20-477): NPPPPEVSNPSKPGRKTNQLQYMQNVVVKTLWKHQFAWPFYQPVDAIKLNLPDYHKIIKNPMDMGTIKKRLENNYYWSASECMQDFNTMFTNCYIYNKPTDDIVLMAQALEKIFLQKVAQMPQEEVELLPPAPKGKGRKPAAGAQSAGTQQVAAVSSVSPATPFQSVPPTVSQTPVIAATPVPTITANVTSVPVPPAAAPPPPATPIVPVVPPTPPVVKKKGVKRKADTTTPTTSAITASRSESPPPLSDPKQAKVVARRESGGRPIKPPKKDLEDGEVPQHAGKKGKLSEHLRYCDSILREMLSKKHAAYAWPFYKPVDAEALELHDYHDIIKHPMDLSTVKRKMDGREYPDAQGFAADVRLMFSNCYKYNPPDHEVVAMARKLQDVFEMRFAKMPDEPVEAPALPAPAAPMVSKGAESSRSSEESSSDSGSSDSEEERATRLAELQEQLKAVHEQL

Row | Structure (SMILES) | GI50 (THP-1) [nM] | THP-1 TGI (THP-1) [nM] | GI50 (K-562) [nM] | K-562 TGI (K-562) [nM] | IC50 (BRD4) [nM] | IC50 (CREBBP) [nM] | GI50 (MV-4-11) [nM] | MV-4-11 TGI (MV-4-11) [nM] | IC50 (BRD3) [nM]
1 | COc1ncccc1-c1c(C2CC2)c2c(n1C)C(c1ccc(Cl)cc1)N(c1cc(C)c3nnc(C)n3c1)C2=O (stereo not drawn) [Example 120, 6-(4-chlorophenyl)-3-cyclopropyl-5-(3,8-dimethyl-[1,2,4]triazolo[4,3-a]pyridin-6-yl)-2-(2-methoxypyridin-3-yl)-1-methyl-5,6-dihydropyrrolo[3,4-b]pyrrol-4(1H)-one] | 3.67 | 5.503 | 25.4 | >7000 | < 11 | 1600 | 3.02 | 5.053 | < 11
2 | Cc1cc(N2C(=O)c3cc(C4CCOCC4)n(C)c3C2c2ccc(Cl)cc2)cn2c(C)nnc12 (stereo not drawn) [Example 121, 6-(4-chlorophenyl)-5-(3,8-dimethyl-[1,2,4]triazolo[4,3-a]pyridin-6-yl)-1-methyl-2-(tetrahydro-2H-pyran-4-yl)-5,6-dihydropyrrolo[3,4-b]pyrrol-4(1H)-one] | 44.7 | 86.2 | 164 | >10000 | 56 | 640 | 54.9 | 89.3 | 44
3 | Cc1cc(N2C(=O)c3c(C4CC4)c(C)n(C)c3C2c2ccc(Cl)cc2)cn2c(C)nnc12 (stereo not drawn) [Example 122, 6-(4-chlorophenyl)-3-cyclopropyl-5-(3,8-dimethyl-[1,2,4]triazolo[4,3-a]pyridin-6-yl)-1,2-dimethyl-5,6-dihydropyrrolo[3,4-b]pyrrol-4(1H)-one] | 6.04 | 11.93 | 41 | >7000 | 12 | 4500 | 9.11 | 12.97 | 15
4 | CCOC(=O)n1c(C2=CCOCC2)c(C)c2c1C(c1ccc(Cl)cc1)N(c1cc(C)c3nnc(C)n3c1)C2=O (stereo not drawn) [Example 123, Ethyl 6-(4-chlorophenyl)-2-(3,6-dihydro-2H-pyran-4-yl)-5-(3,8-dimethyl-[1,2,4]triazolo[4,3-a]pyridin-6-yl)-3-methyl-4-oxo-5,6-dihydropyrrolo[3,4-b]pyrrole-1(4H)-carboxylate] | 6.03 | 13.5 | 37.5 | >10000 | < 11 | 2800 | 5.14 | 9.695 | 11
5 | CCOC(=O)n1c(-c2cccnc2OC)c(C)c2c1C(c1ccc(Cl)cc1)N(c1cc(C)c3nnc(C)n3c1)C2=O (stereo not drawn) [Example 124, Ethyl 6-(4-chlorophenyl)-5-(3,8-dimethyl-[1,2,4]triazolo[4,3-a]pyridin-6-yl)-2-(2-methoxypyridin-3-yl)-3-methyl-4-oxo-5,6-dihydropyrrolo[3,4-b]pyrrole-1(4H)-carboxylate] | 7.56 | 15.8 | 41.6 | >10000 | 11 | 1500 | 6.58 | 13.2 | 14
6 | CCOC(=O)n1cc(C2CC2)c2c1C(c1ccc(Cl)cc1)N(c1cc(C)c3nnc(C)n3c1)C2=O (stereo not drawn) [Example 125, Ethyl 6-(4-chlorophenyl)-3-cyclopropyl-5-(3,8-dimethyl-[1,2,4]triazolo[4,3-a]pyridin-6-yl)-4-oxo-5,6-dihydropyrrolo[3,4-b]pyrrole-1(4H)-carboxylate] | 15 | 28.4 | 115 | >10000 | 15 | 13700 | 12.1 | 19.25 | 15
7 | Cc1cn(C2CCN(C)C2=O)c2c1C(=O)N(c1cc(C)c3nnc(C)n3c1)C2c1ccc(Cl)cc1 (stereo not drawn) [Example 126, 6-(4-chlorophenyl)-5-(3,8-dimethyl-[1,2,4]triazolo[4,3-a]pyridin-6-yl)-3-methyl-1-(1-methyl-2-oxopyrrolidin-3-yl)-5,6-dihydropyrrolo[3,4-b]pyrrol-4(1H)-one] | 113 | 315.5 | 628 | >10000 | 43 | 12900 | 74.6 | 180 | 48
8 | CNC(=O)Cn1cc(C)c2c1C(c1ccc(Cl)cc1)N(c1cc(C)c3nnc(C)n3c1)C2=O (stereo not drawn) [Example 127, 2-(6-(4-chlorophenyl)-5-(3,8-dimethyl-[1,2,4]triazolo[4,3-a]pyridin-6-yl)-3-methyl-4-oxo-5,6-dihydropyrrolo[3,4-b]pyrrol-1(4H)-yl)-N-methylacetamide] | 824 | 1129 | 2320 | >10000 | 85 | 7500 | 412 | 640 | 81
9 | Cc1cn(CCN(C)C)c2c1C(=O)N(c1cc(C)c3nnc(C)n3c1)C2c1ccc(Cl)cc1 (stereo not drawn) [Example 128, 6-(4-chlorophenyl)-5-(3,8-dimethyl-[1,2,4]triazolo[4,3-a]pyridin-6-yl)-1-(2-(dimethylamino)ethyl)-3-methyl-5,6-dihydropyrrolo[3,4-b]pyrrol-4(1H)-one] | 37.7 | 105.1 | 203 | >10000 | 45 | 27600 | 39.5 | 62.9 | 46
10 | Cc1cn(CC(=O)N(C)C)c2c1C(=O)N(c1cc(C)c3nnc(C)n3c1)C2c1ccc(Cl)cc1 (stereo not drawn) [Example 129, 2-(6-(4-chlorophenyl)-5-(3,8-dimethyl-[1,2,4]triazolo[4,3-a]pyridin-6-yl)-3-methyl-4-oxo-5,6-dihydropyrrolo[3,4-b]pyrrol-1(4H)-yl)-N,N-dimethylacetamide] | 188 | 439.5 | 492 | >10000 | 54 | 8100 | 96.3 | 143 | 58
11 | Cc1cc(N2C(=O)c3c(C4CNC4)cn(C)c3C2c2ccc(Cl)cc2)nc2c1nnn2C (stereo not drawn) [Example 130, 3-(azetidin-3-yl)-6-(4-chlorophenyl)-5-(3,7-dimethyl-3H-[1,2,3]triazolo[4,5-b]pyridin-5-yl)-1-methyl-5,6-dihydropyrrolo[3,4-b]pyrrol-4(1H)-one] | 12.9 | 31 | 76.3 | 3500 | 12 | 12800 | < 3 | 6.21 | 13
12 | Cc1cc(N2C(=O)c3ccn(C)c3C2c2ccc(Cl)cc2)nn2c(C)nnc12 (stereo not drawn) [Example 131, 6-(4-chlorophenyl)-5-(3,8-dimethyl-[1,2,4]triazolo[4,3-b]pyridazin-6-yl)-1-methyl-5,6-dihydropyrrolo[3,4-b]pyrrol-4(1H)-one] | 9.76 | 30.25 | 67.1 | >10000 | 33 | > 37000 | 9.21 | 21.5 | 27

From patent US9550796B2, “Pyrrolopyrrolone derivatives and their use as BET inhibitors” (NOVARTIS AG, priority 2013, dated 2017)
